Tested on: GH surge induced by GHRH
Assay: Effect on circulating growth hormone: GH surge induced by i.v. GHRH in rats, plasma GH by RIA
Format: in vivo, male Sprague-Dawley rats
Experimental: Experiments were conducted in male Sprague-Dawley rats (200-220 g) obtained from lffa Credo (L'Arbresle, France), fed with standard laboratory chow ad libitum and kept on a 12 h light-dark in a temperature- and humidity-controlled room.
Rats were weighed and anesthetized with Narcorene. The ventral side of the throat was shaved and an incision was made down the center of the throat. The right jugular vein was exposed and cannulated using a polythene tubing (OD 1.0 mm) connected to a medical grade silicone tubing (OD 0.94 mm) (silicone side in the jugular vein). The tubing was secured and the polythene side was externalized through an incision made on the dorsal side of the neck. The catheter was rinsed with 300 μL of a Ringer solution containing 0.1% heparin. Rats were allowed to recover for at least 24 hours in individual cages with food and water available ad libitum.
The compound of Example 1B (3 mg/kg, i.v.) or its vehicle was injected 15 minutes before an injection of GHRH (0.1 μg/kg, i.v.). Blood samples (200-250 μL) were removed immediately before inhibitor and GHRH injections, and then 5, 10, 15, 20, 30 and 60 min post-GHRH. Each blood sample was replaced with an equivalent volume of a Ringer solution containing 0.1% heparin. Plasma was extracted and stored at −20° C. until determinations of GH by RIA.

Compound: CC(C)(C)[C@H](N)C(=O)N1CCC[C@H]1C#N [Example 1B, (2S)-N-((2′S)-2′-amino-3′,3′-dimethylbutanoyl)pyrrolidine-2-carbonitrile]
- Effect on the GH surge induced by the administration of GHRH (3 mg/kg i.v. 15 min before GHRH 0.1 μg/kg i.v., rats): potentiated the GH surge
- mean GH, Time 5 min (5 min post-GHRH 0.1 μg/kg i.v., inhibitor 3 mg/kg i.v. 15 min before GHRH, mean of 6 rats ± s.e.m.): 483.0 ± 91.0 ng/mL
- mean GH, Time 10 min (10 min post-GHRH 0.1 μg/kg i.v., inhibitor 3 mg/kg i.v. 15 min before GHRH, mean of 6 rats ± s.e.m.): 309.5 ± 55.40 ng/mL
- mean GH, Time 0 min (15 min after inhibitor 3 mg/kg i.v., immediately before GHRH 0.1 μg/kg i.v., mean of 6 rats ± s.e.m.): 33.4 ± 6.9 ng/mL
- mean GH, Time 15 min (15 min post-GHRH 0.1 μg/kg i.v., inhibitor 3 mg/kg i.v. 15 min before GHRH, mean of 6 rats ± s.e.m.): 164.3 ± 28.3 ng/mL
- mean GH, Time 20 min (20 min post-GHRH 0.1 μg/kg i.v., inhibitor 3 mg/kg i.v. 15 min before GHRH, mean of 6 rats ± s.e.m.): 103.1 ± 18.1 ng/mL
- mean GH, Time 30 min (30 min post-GHRH 0.1 μg/kg i.v., inhibitor 3 mg/kg i.v. 15 min before GHRH, mean of 6 rats ± s.e.m.): 52.1 ± 7.7 ng/mL
- mean GH, Time 60 min (60 min post-GHRH 0.1 μg/kg i.v., inhibitor 3 mg/kg i.v. 15 min before GHRH, mean of 6 rats ± s.e.m.): 26.3 ± 3.3 ng/mL
- GH AUC (AUC column of Table 1, inhibitor 3 mg/kg i.v. 15 min before GHRH 0.1 μg/kg i.v., 6 rats, ± s.e.m.): 5070 ± 837 ng·min/mL
- Integrated GH response (inhibitor-treated group, 3 mg/kg i.v. 15 min before GHRH 0.1 μg/kg i.v., p<0.05 vs vehicle (720.2±217.0)): 5072.8±837.3 ng/ml.60 min
- mean GH, Time -15 min (plasma GH immediately before inhibitor injection (3 mg/kg i.v.), mean of 6 rats ± s.e.m.): 50.5 ± 16.4 ng/mL

Source: US6521644B1, “Compositions for promoting growth” (Ferring BV, priority 1999, dated 2003)
